ChEMBL document CHEMBL4808226, “Optimization of the Urea Linker of Triazolopyridazine MMV665917 Results in a New Anticryptosporidial Lead with Improved Potency and Predicted hERG Safety Margin” (J Med Chem, 2021)
Values after ≈ are worked out from the molar mass of the structure shown. Each block holds one molecule with its values, some of them ahead of it. Active and inactive are the calls of the source. No cut-off for these calls is given here.

What was measured:
Cryptosporidium parvum [1] = assay: Anti-cryptosporidial activity against Cryptosporidium parvum infected in HCT-8 cells pre-infected for 3 hrs followed by compound treatment and measured after 45 hrs by fluorescence microscopy analysis; format: functional, organism-based
hERG (KCNH2) [2] = target: T1, hERG (KCNH2) (Homo sapiens, UniProt Q12809); assay: Displacement of [3H]-dofetilide from human ERG at 10 uM relative to control; details: probe [3H]-dofetilide
[3] = Metabolic stability in human liver microsomes assessed as half life at 2 uM measured up to 30 mins in presence of NADPH by LC-MS/MS analysis; format: ADME, Microsome; details: microsomes, 0.5 h, 2 µM
[4] = Kinetic aqueous solubility of the compound in pH 7.4; format: physicochemical; details: buffer, read-out: Kinetic_solubility
[5] = Metabolic stability in mouse liver microsomes assessed as half life at 2 uM measured up to 30 mins in presence of NADPH by LC-MS/MS analysis; format: ADME, Microsome; details: 0.5 h
[6] = Efflux ratio of apparent permeability across basolateral to apical side over apical to basolateral side in […] cells at 10 uM after 2 hrs; format: ADME, cell-based; details: mdckii-mdr1, 2 h, 10 µM
Cryptosporidium hominis = assay: Anti-cryptosporidial activity against Cryptosporidium hominis infected in HCT-8 cells pre-infected for 3 hrs followed by compound treatment and measured after 45 hrs by fluorescence microscopy analysis; format: functional, organism-based
Cryptosporidium parvum [7] = assay: Anti-cryptosporidial activity against Cryptosporidium parvum infected in HCT-8 cells assessed as rate of parasite elimination at 6 times of EC90 concentration pre-infected for 24 hrs followed by compound treatment; format: functional, organism-based
HCT-8 = assay: Cytotoxicity against human HCT8 cells assessed as reduction in cell viability after 48 hrs by CellTiter aqueous assay; format: cell-based; details: hct-8, 48 h
hERG (KCNH2) [8] = target: T1, hERG (KCNH2); assay: Inhibition of human ERG expressed in CHO cells at 1 uM by automated patch clamp electrophysiology assay relative to control; format: cell-based; details: CHO cells that express hERG
hERG (KCNH2) [9] = target: T1, hERG (KCNH2); assay: Inhibition of human ERG expressed in CHO cells at 10 uM by automated patch clamp electrophysiology assay relative to control; format: cell-based; details: CHO cells that express hERG
hERG (KCNH2) [10] = target: T1, hERG (KCNH2); assay: Inhibition of human ERG expressed in CHO cells at 100 uM by automated patch clamp electrophysiology assay relative to control; format: cell-based; details: CHO cells that express hERG

T1 sequence (Q12809 whole entry): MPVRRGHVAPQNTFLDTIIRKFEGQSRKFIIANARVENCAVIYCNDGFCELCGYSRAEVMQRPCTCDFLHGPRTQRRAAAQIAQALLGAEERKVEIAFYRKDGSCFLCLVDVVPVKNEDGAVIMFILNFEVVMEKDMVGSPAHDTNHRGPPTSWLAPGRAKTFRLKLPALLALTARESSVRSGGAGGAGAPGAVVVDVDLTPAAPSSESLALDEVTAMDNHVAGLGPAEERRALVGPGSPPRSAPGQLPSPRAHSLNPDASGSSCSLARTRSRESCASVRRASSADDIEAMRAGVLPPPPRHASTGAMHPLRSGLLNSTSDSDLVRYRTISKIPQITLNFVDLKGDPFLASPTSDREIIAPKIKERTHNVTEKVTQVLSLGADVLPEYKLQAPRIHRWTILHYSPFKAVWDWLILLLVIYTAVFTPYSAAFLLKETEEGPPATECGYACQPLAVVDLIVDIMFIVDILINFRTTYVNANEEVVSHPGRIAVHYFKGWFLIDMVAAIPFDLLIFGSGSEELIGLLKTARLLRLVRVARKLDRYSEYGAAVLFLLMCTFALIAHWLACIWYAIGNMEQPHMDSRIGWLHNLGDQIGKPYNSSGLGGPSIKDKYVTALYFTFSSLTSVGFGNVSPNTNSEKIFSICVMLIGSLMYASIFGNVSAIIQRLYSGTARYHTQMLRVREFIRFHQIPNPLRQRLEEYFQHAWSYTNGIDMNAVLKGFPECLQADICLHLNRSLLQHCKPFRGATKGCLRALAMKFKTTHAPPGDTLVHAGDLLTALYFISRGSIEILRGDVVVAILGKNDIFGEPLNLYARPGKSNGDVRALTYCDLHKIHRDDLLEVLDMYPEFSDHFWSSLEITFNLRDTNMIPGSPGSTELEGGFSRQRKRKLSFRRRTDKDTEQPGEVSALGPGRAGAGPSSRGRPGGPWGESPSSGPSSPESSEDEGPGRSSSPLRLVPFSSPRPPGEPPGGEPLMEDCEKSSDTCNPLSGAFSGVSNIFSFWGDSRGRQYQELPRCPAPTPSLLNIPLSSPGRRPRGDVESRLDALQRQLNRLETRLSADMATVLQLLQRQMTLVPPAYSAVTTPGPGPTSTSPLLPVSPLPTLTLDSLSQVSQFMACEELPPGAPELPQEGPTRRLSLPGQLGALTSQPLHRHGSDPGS

Structure (SMILES): N#Cc1ccc(CC(=O)N2CCN(c3ccc4nncn4n3)CC2)cc1
- EC50 (Cryptosporidium parvum [1]): 11 µM

Structure (SMILES): O=C(Cc1cccc2ccccc12)N1CCN(c2ccc3nncn3n2)CC1
- EC50 (Cryptosporidium parvum [1]): 17.1 µM

Structure (SMILES): O=C(Cc1ccc(Cl)c(Cl)c1)N1CCC(Nc2ccc3nncn3n2)CC1
- EC50 (Cryptosporidium parvum [1]): > 25 µM

Structure (SMILES): O=C(Cc1ccc(Cl)c(Cl)c1)N1CC=C(c2ccc3nncn3n2)CC1
- EC50 (Cryptosporidium parvum [1]): 16 µM
- inhibition at 10 µM (hERG (KCNH2) [2]): 9%

Structure (SMILES): O=C(Cc1ccc(Cl)cc1)N1CCN(c2ccc3nncn3n2)CC1
- t1/2 [3]: > 30 min
- solubility kinetic [4]: 10 µM (≈ 3.57 µg/mL)
- t1/2 [5]: > 30 min
- EC50 (Cryptosporidium parvum [1]): 0.66 µM
- inhibition at 10 µM (hERG (KCNH2) [2]): 2%
- Ratio [6]: 3

Structure (SMILES): O=C(Cc1ccc([N+](=O)[O-])cc1)N1CCN(c2ccc3nncn3n2)CC1
- EC50 (Cryptosporidium parvum [1]): 2.5 µM

Further lines, with some results ahead:

- EC50 (Cryptosporidium parvum [1]): 2.2 µM
Structure (SMILES): O=C(C(=O)N1CCN(c2ccc3nncn3n2)CC1)c1ccc(Cl)c(Cl)c1

- EC50 (Cryptosporidium parvum [1]): 29 µM
Structure (SMILES): CN(C(=O)N1CCN(c2ccc3nncn3n2)CC1)c1ccc(Cl)c(Cl)c1

- EC50 (Cryptosporidium parvum [1]): 8.5 µM
Structure (SMILES): O=C(N1CCN(c2ccc3nncn3n2)CC1)C1(c2ccc(Cl)c(Cl)c2)CC1

- EC50 (Cryptosporidium parvum [1]): 2.3 µM
Structure (SMILES): O=C(N1CCN(c2ccc3nncn3n2)CC1)C(F)(F)c1ccc(Cl)c(Cl)c1

- EC50 (Cryptosporidium parvum [1]): > 25 µM
Structure (SMILES): O=C(Nc1ccc(Cl)c(Cl)c1)N1CCCN(c2ccc3nncn3n2)CC1

- t1/2 [3]: > 30 min
- solubility kinetic [4]: 1.8 µM (≈ 0.706 µg/mL)
- t1/2 [5]: > 30 min
- EC50 (Cryptosporidium parvum [1]): 0.55 µM
- EC50 (Cryptosporidium hominis): 0.56 µM
- Ratio [6]: 12
Structure (SMILES): O=C(Nc1ccc(Cl)c(Cl)c1)N1CCN(c2ccc3nncn3n2)CC1
- Activity (Cryptosporidium parvum [7]): Active
- CC50 (HCT-8): > 100 µM
- inhibition at 10 µM (hERG (KCNH2) [2]): 56%
- inhibition at 1 µM (hERG (KCNH2) [8]): 41%
- inhibition at 10 µM (hERG (KCNH2) [9]): 87%
- inhibition at 100 µM (hERG (KCNH2) [10]): 94%

- EC50 (Cryptosporidium parvum [1]): 12 µM
Structure (SMILES): O=C(Cc1ccc(Cl)c(Cl)c1)N1CCCN(c2ccc3nncn3n2)CC1

- EC50 (Cryptosporidium parvum [1]): > 25 µM
Structure (SMILES): O=S(=O)(Cc1ccc(Cl)c(Cl)c1)N1CCN(c2ccc3nncn3n2)CC1

- EC50 (Cryptosporidium parvum [1]): 3.5 µM
Structure (SMILES): O=C(Cc1cccc(Cl)c1)N1CCN(c2ccc3nncn3n2)CC1
